Data reported in publication PMC10891214, “Effects of food and ethnicity on the pharmacokinetics of venadaparib, a next-generation PARP inhibitor, in healthy Korean, Caucasian, and Chinese male subjects” (Investigational New Drugs, 2023).

Experiments:
[1] = in vivo
Description: Safety was assessed in all subjects who received the study drug at least once throughout the study based on adverse event (AE) monitoring, physical examinations, vital signs, 12-lead electrocardiograms (ECGs), and clinical laboratory tests.
To support the evaluation of the relationship between concentration and QT/corrected QT (QTc) interval effects in the early stage of the clinical development of venadaparib, triplicate ECG tests were conducted in the middle of the study [22]. A triplicate ECG test was conducted in three Caucasian and five Chinese subjects after the protocol amendment. […] Fridericia’s corrected QT interval (QTcF) was collected, along with the existing ventricular rate, PR interval, QRS duration, QT interval, and QTcB. Triplicate ECGs were measured three times at intervals of 30 s to 2 min at each time point after at least 5 min of resting, and the median value of the three measurements was considered a representative value. QTcF and QTcB were calculated using the following population-derived correction equations: QTcF = QT/RR^0.33 and QTcB = QT/RR^0.5 [22].

cytochrome P450 3A4 = tested on: cytochrome P450 3A4; parameters: method as in data on file; details: in vitro phenotyping study; ref data on file; cited from earlier work
PARP2 = tested on: PARP2; parameters: method as in PMID 36808277; details: cited from earlier work
PARP = tested on: PARP; parameters: method as in PMID 36808277, PMID 24162931, PMID 33657415; details: cited from earlier work
PARP1 = tested on: PARP1; parameters: method as in PMID 36808277; details: cited from earlier work
[2] = Pharmacokinetics after a single oral administration of venadaparib 80 mg (fasted or fed state) in healthy male subjects; assay type: in vivo, human; details: for AUCinf / AUClast / CL/F / Cmax / Vd/F / t1/2 / Tmax: 80 mg single oral; for AUCinf / AUClast / CL/F / Cmax / Vd/F / t1/2: mean ± SD; for Tmax: median (minimum–maximum); for AUCinf geometric mean ratio (90% confidence interval) / AUClast geometric mean ratio (90% confidence interval) / Cmax geometric mean ratio (90% confidence interval): fed to fasted state
Description: A randomized, open-label, single-dose, two-sequence, and two-period crossover study was conducted with 12 Korean and 12 Caucasian subjects. Subjects in each ethnic group were randomly assigned to one of the two sequences at a ratio of 1:1 (Fig. 1). The subjects were orally administered 80 mg of venadaparib in each treatment period (fasted or fed state), following an overnight fast of at least 10 h. There was a seven-day washout between the two treatment periods. In the fed state, the subjects consumed an entire high-fat meal (total of 800–1000 kcal, fat of 500–600 kcal) within 20 min and were subsequently administered the study drug with 240 mL of water 30 min after the start of the meal. An open-label, single-dose study was conducted on 12 Chinese subjects who received 80 mg of venadaparib only in the fasted state (Fig. 1).
Based on the PK results of venadaparib in a previous study (NCT03317743), serial blood samples for the PK analysis of venadaparib were collected at 0 (pre-dose), 0.25, 0.5, 1, 2, 3, 4, 6, 8, 10, 12, 24, 36, 48, and 72 h post-dose for all treatment and ethnic groups. The blood samples were collected in a K2-ethylenediaminetetraacetic acid (EDTA) vacutainer, centrifuged at 4 ℃ and 3000 rpm for 10 min, and stored at − 70 ℃ until analysis.
Plasma concentrations of venadaparib were determined using validated high-performance liquid chromatography (Exion LC, AB Sciex) coupled with mass spectrometry (Triple Quad 5500+, AB Sciex). Venadaparib as an analyte and olaparib as the internal standard were separated using a Gemini 3 μm NX-C18 110 Å (100 × 3 mm) column (Phenomenex, CA, USA) at 40 ℃. The mobile phase comprised 0.1% formic acid in distilled water and 100% acetonitrile at a flow rate of 0.3 mL/minute. Venadaparib and olaparib were detected with a turbo-ion spray in positive ionization mode at an m/z transition of 407.2 → 70.0 and 435.2 → 281.1, respectively.
The calibration curve for venadaparib ranged from 5 to 5000 μg/L, with precision and accuracy ranging from 1.89 to 4.00% and 92.98 to 102.80%, respectively. For the quality control sample data of venadaparib, the precision and accuracy ranged from 4.38 to 5.18% and 96.75 to 102.59%, respectively.
The PK parameters of venadaparib were calculated by a non-compartmental method using Phoenix WinNonlin software version 8.3.4 (Certara, NJ, USA). The area under the plasma concentration-time curve (AUC) was determined using the linear-up log-down trapezoidal method. The primary PK parameters were Cmax and AUC from time zero to the last measurable time point (AUClast) for comparison between the exposures to the effects of food and ethnicity. The following secondary PK parameters were calculated: AUC from time zero to infinity (AUCinf), time to reach Cmax (Tmax), t1/2, apparent total clearance (CL/F), and apparent volume of distribution (Vd/F).
Statistical analyses were conducted using SAS software version 9.4 (SAS Institute Inc., NC, USA). The primary PK parameters in the fed and fasted states were compared by estimating the geometric mean ratios and 90% confidence intervals using a linear mixed-effects model. The model included the sequence, period, and treatment as fixed effects, and the subject nested within the sequence as a random effect. Analysis of variance (ANOVA) tests were conducted to assess possible differences in the values of the primary PK parameters among the ethnic groups in the fasted state.

[3] = tested on: cancer cell lines with BRCA mutations; parameters: method as in PMID 36808277; details: cited from earlier work
PARP3 = tested on: PARP3; parameters: method as in PMID 36808277; details: cited from earlier work
[4] = tested on: patient-derived xenograft; parameters: method as in PMID 36808277; details: patient-derived xenograft mouse model; cited from earlier work
[5] = parameters: method as in data on file (NCT03317743); details: ref data on file (NCT03317743), cited from earlier work
[6] = tested on: poly(ADP-ribose) formation; parameters: method as in PMID 36808277, PMID 24162931, PMID 33657415; details: cited from earlier work
[7] = Caucasian, fasted state (N = 12)

For O=C(c1cc(Cc2n[nH]c(=O)c3ccccc23)ccc1F)N1CC(CNC2CC2)C1 [venadaparib], which “Infections and infestations: number of events” value [1] is on record?
The value was 1.

What about the “Infections and infestations: number of subjects (percentage of subjects)” value [1] of the same compound?
Its value is 1 (8.3).

And the “Oral herpes: number of events” value ([1]; po)?
The value was 1.

And the “Oral herpes: number of subjects (percentage of subjects)” value ([1]; po)?
Its value is 1 (8.3).

And the “Enzyme primarily metabolizing the drug” value (cytochrome P450 3A4)?
Its value is “cytochrome P450 3A4”.

What about the “IC50 compared with those of olaparib” value (PARP2) of the same compound?
The value was “similar”.

And the “Activity of trapping PARP, relative to talazoparib” value (PARP)?
The value was “comparable”.

What about the “IC50 compared with those of olaparib” value (PARP1) of the same compound?
The value was “similar”.

And the AUCinf [2, 7]?
The AUCinf was 14202.62 ± 4352.38 ng·h/mL.

What about the AUClast [2, 7] of the same compound?
The AUClast was 14091.32 ± 4285.15 ng·h/mL.

And the CL/F [2, 7]?
Its CL/F is 6.10 ± 1.73 L/h.

What about the Cmax [2, 7] of the same compound?
The Cmax was 2392.29 ± 464.48 ng/mL.

And the Vd/F [2, 7]?
Its Vd/F is 72.52 ± 18.25 L.

What about the t1/2 [2, 7] of the same compound?
The t1/2 was 9.32 ± 4.98 h.

What about the Tmax [2, 7] of the same compound?
The Tmax was 0.50 (0.50–2.00) h.

And the AUCinf ([2]; Caucasian, fed state (N = 12))?
Its AUCinf is 13752.20 ± 4522.49 ng·h/mL.

What about the AUClast ([2]; Caucasian, fed state (N = 12)) of the same compound?
The AUClast was 13557.03 ± 4401.60 ng·h/mL.

What about the CL/F ([2]; Caucasian, fed state (N = 12)) of the same compound?
The CL/F was 6.33 ± 1.78 L/h.

And the Cmax ([2]; Caucasian, fed state (N = 12))?
Its Cmax is 1894.30 ± 602.49 ng/mL.

And the Vd/F ([2]; Caucasian, fed state (N = 12))?
Its Vd/F is 124.29 ± 71.28 L.

What about the t1/2 ([2]; Caucasian, fed state (N = 12)) of the same compound?
Its t1/2 is 14.16 ± 7.16 h.

And the Tmax ([2]; Caucasian, fed state (N = 12))?
Its Tmax is 2.00 (1.00–4.00) h.

And the “AUCinf geometric mean ratio (90% confidence interval)” value ([2]; Caucasian, 80 mg)?
The value was 0.96 (0.9074–1.0260).

What about the “AUClast geometric mean ratio (90% confidence interval)” value ([2]; Caucasian, 80 mg) of the same compound?
Its value is 0.96 (0.9017–1.0186).

And the “Cmax geometric mean ratio (90% confidence interval)” value ([2]; Caucasian, 80 mg)?
The value was 0.77 (0.6871–0.8609).

And the “Decrease of Cmax in the fed state compared with the fasted state” value ([2]; Caucasians, 80 mg)?
Its value is 23%.

What about the AUCinf ([2]; Chinese, fasted state (N = 12)) of the same compound?
The AUCinf was 14981.87 ± 4276.66 ng·h/mL.

And the AUClast ([2]; Chinese, fasted state (N = 12))?
The AUClast was 14878.51 ± 4254.97 ng·h/mL.

And the CL/F ([2]; Chinese, fasted state (N = 12))?
The CL/F was 5.84 ± 2.02 L/h.

And the Cmax ([2]; Chinese, fasted state (N = 12))?
Its Cmax is 2390.12 ± 576.02 ng/mL.

What about the Vd/F ([2]; Chinese, fasted state (N = 12)) of the same compound?
Its Vd/F is 53.23 ± 20.51 L.

What about the t1/2 ([2]; Chinese, fasted state (N = 12)) of the same compound?
The t1/2 was 6.95 ± 4.18 h.

What about the Tmax ([2]; Chinese, fasted state (N = 12)) of the same compound?
Its Tmax is 1.00 (0.50–2.00) h.

What about the AUCinf ([2]; Korean, fasted state (N = 12)) of the same compound?
The AUCinf was 12453.18 ± 3565.66 ng·h/mL.

And the AUClast ([2]; Korean, fasted state (N = 12))?
The AUClast was 12347.13 ± 3514.30 ng·h/mL.

What about the CL/F ([2]; Korean, fasted state (N = 12)) of the same compound?
The CL/F was 6.92 ± 1.95 L/h.

And the Cmax ([2]; Korean, fasted state (N = 12))?
The Cmax was 2165.59 ± 446.08 ng/mL.

What about the Vd/F ([2]; Korean, fasted state (N = 12)) of the same compound?
The Vd/F was 83.84 ± 48.70 L.

And the t1/2 ([2]; Korean, fasted state (N = 12))?
The t1/2 was 9.06 ± 6.08 h.

What about the Tmax ([2]; Korean, fasted state (N = 12)) of the same compound?
Its Tmax is 0.50 (0.50–2.00) h.

And the AUCinf ([2]; Korean, fed state (N = 12))?
Its AUCinf is 13108.90 ± 5771.31 ng·h/mL.

What about the AUClast ([2]; Korean, fed state (N = 12)) of the same compound?
The AUClast was 12972.02 ± 5734.25 ng·h/mL.

And the CL/F ([2]; Korean, fed state (N = 12))?
Its CL/F is 6.95 ± 2.29 L/h.

And the Cmax ([2]; Korean, fed state (N = 12))?
Its Cmax is 1835.01 ± 637.11 ng/mL.

And the Vd/F ([2]; Korean, fed state (N = 12))?
Its Vd/F is 104.18 ± 57.31 L.

What about the t1/2 ([2]; Korean, fed state (N = 12)) of the same compound?
The t1/2 was 10.80 ± 5.10 h.

And the Tmax ([2]; Korean, fed state (N = 12))?
Its Tmax is 2.00 (0.50–4.00) h.

What about the “AUCinf geometric mean ratio (90% confidence interval)” value ([2]; Korean, 80 mg) of the same compound?
Its value is 1.02 (0.9126–1.1360).

And the “AUClast geometric mean ratio (90% confidence interval)” value ([2]; Korean, 80 mg)?
The value was 1.02 (0.9088–1.1339).

And the “Cmax geometric mean ratio (90% confidence interval)” value ([2]; Korean, 80 mg)?
The value was 0.82 (0.7457–0.9094).

What about the “Reduction of peak concentrations after a high-fat meal” value ([2]; Koreans and Caucasians, 80 mg) of the same compound?
Its value is “approximately 20%”.

What about the “Decrease of Cmax in the fed state compared with the fasted state” value ([2]; Koreans, 80 mg) of the same compound?
The value was 18%.

What about the “PK profiles among the Korean, Caucasian, and Chinese subjects” value ([2]; fasted state, 80 mg) of the same compound?
The value was “comparable”.

What about the “Effect of the high-fat meal on overall systemic exposure” value ([2]; fed vs fasted state, 80 mg) of the same compound?
The value was “not significantly affected”.

And the “Antitumor potency, fold higher than that of olaparib” value [3]?
The value was 40–440 fold.

And the “IC50 compared with those of olaparib” value (PARP3)?
Its value is “higher”.

And the “Tumor growth inhibition rate” value [4]?
Its value is 131.0–135.2%.

What about the “Mean elimination half-life (t1/2)” value ([5]; Korean patients with advanced solid tumors, 2–240 mg/day) of the same compound?
The value was 7 to 13 h.

And the “Safety and tolerability of multiple three-week administrations” value ([5]; dose range 2–240 mg/day, Korean patients)?
Its value is “safe and well-tolerated”.

And the “Relationship of systemic exposure to dose” value ([5]; dose range 2–240 mg/day)?
Its value is “dose-proportional”.

And the “Activity of inhibiting poly(ADP-ribose) formation, relative to talazoparib” value [6]?
Its value is “comparable”.
